Values joined by “and” are separate entries in the source; they are usually repeats but may differ in a detail not shown here. Identical values can stand only once.
Test system: 931267-113-T-J1-PDC multicell spheroid viability
Experiment: Anticancer human tumor 931267-113-T-J1-PDC patient-derived colon adenocarcinoma cell line growth inhibition [PI3K]
Details: for viability, T/C: stronger effect = lower value
Method in brief: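 Stroma-containing spheroids: tumor line, pooled-donor HUVEC, hMSC. Treatments: targeted agents with PI3K inhibitors. Dosing: clinically relevant, half-log spacing, 10 microM ceiling without known Cmax. Read-out: cell viability.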

[1] = curve of first compound, second compound 0.0316 µM
[2] = curve of first compound, second compound 0.1 µM
[3] = curve of first compound, second compound 0.316 µM
[4] = curve of first compound, second compound 1 µM
[5] = curve of first compound, second compound 3.16 µM
[6] = curve of first compound, second compound 10 µM
[7] = second compound 0.0316 µM, first compound 0.00316 µM
[8] = second compound 0.0316 µM, first compound 0.01 µM
[9] = second compound 0.0316 µM, first compound 0.0316 µM
[10] = second compound 0.0316 µM, first compound 0.1 µM
[11] = second compound 0.1 µM, first compound 0.00316 µM
[12] = second compound 0.1 µM, first compound 0.01 µM
[13] = second compound 0.1 µM, first compound 0.0316 µM
[14] = second compound 0.1 µM, first compound 0.1 µM
[15] = second compound 0.316 µM, first compound 0.00316 µM
[16] = second compound 0.316 µM, first compound 0.01 µM
[17] = second compound 0.316 µM, first compound 0.0316 µM
[18] = second compound 0.316 µM, first compound 0.1 µM
[19] = second compound 1 µM, first compound 0.00316 µM
[20] = second compound 1 µM, first compound 0.01 µM
[21] = second compound 1 µM, first compound 0.0316 µM
[22] = second compound 1 µM, first compound 0.1 µM
[23] = second compound 3.16 µM, first compound 0.00316 µM
[24] = second compound 3.16 µM, first compound 0.01 µM
[25] = second compound 3.16 µM, first compound 0.0316 µM
[26] = second compound 3.16 µM, first compound 0.1 µM
[27] = second compound 10 µM, first compound 0.00316 µM
[28] = second compound 10 µM, first compound 0.01 µM
[29] = second compound 10 µM, first compound 0.0316 µM
[30] = second compound 10 µM, first compound 0.1 µM
[31] = second compound 0.0316 µM, first compound 0.316 µM
[32] = second compound 0.0316 µM, first compound 1 µM
[33] = second compound 0.1 µM, first compound 0.316 µM
[34] = second compound 0.1 µM, first compound 1 µM
[35] = second compound 0.316 µM, first compound 0.316 µM
[36] = second compound 0.316 µM, first compound 1 µM
[37] = second compound 1 µM, first compound 0.316 µM
[38] = second compound 1 µM, first compound 1 µM
[39] = second compound 3.16 µM, first compound 0.316 µM
[40] = second compound 3.16 µM, first compound 1 µM
[41] = second compound 10 µM, first compound 0.316 µM
[42] = second compound 10 µM, first compound 1 µM
[43] = second compound 0.0316 µM, first compound 3.16 µM
[44] = second compound 0.0316 µM, first compound 10 µM
[45] = second compound 0.1 µM, first compound 3.16 µM
[46] = second compound 0.1 µM, first compound 10 µM
[47] = second compound 0.316 µM, first compound 3.16 µM
[48] = second compound 0.316 µM, first compound 10 µM
[49] = second compound 1 µM, first compound 3.16 µM
[50] = second compound 1 µM, first compound 10 µM
[51] = second compound 3.16 µM, first compound 3.16 µM
[52] = second compound 3.16 µM, first compound 10 µM
[53] = second compound 10 µM, first compound 3.16 µM
[54] = second compound 10 µM, first compound 10 µM
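Also: viability read 7 days after compound addition.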

Question: Cn1ncnc1[C@H]1c2n[nH]c(=O)c3cc(F)cc(c23)N[C@@H]1c1ccc(F)cc1 + CC(Nc1ncnc2nc[nH]c12)c1cc2cccc(Cl)c2c(=O)n1-c1ccccc1 was tested. Which IC50 [1] did it give?
Answer: > 100 nM

Question: And the IC50 [2]?
Answer: > 100 nM

Question: And the IC50 [3]?
Answer: > 100 nM

Question: And the IC50 [4]?
Answer: > 100 nM

Question: What about the IC50 [5] of the same compound?
Answer: > 100 nM

Question: And the IC50 [6]?
Answer: > 100 nM

Question: And the viability, T/C (second compound 0.0316 µM, first compound 0.000316 µM)?
Answer: 105%

Question: And the viability, T/C (second compound 0.0316 µM, first compound 0.001 µM)?
Answer: 102%

Question: And the viability, T/C [7]?
Answer: 102%

Question: And the viability, T/C [8]?
Answer: 99.6%

Question: What about the viability, T/C [9] of the same compound?
Answer: 114%

Question: And the viability, T/C [10]?
Answer: 103%

Question: What about the viability, T/C (second compound 0.1 µM, first compound 0.000316 µM) of the same compound?
Answer: 117%

Question: And the viability, T/C (second compound 0.1 µM, first compound 0.001 µM)?
Answer: 112%

Question: What about the viability, T/C [11] of the same compound?
Answer: 96%

Question: What about the viability, T/C [12] of the same compound?
Answer: 98.5%

Question: What about the viability, T/C [13] of the same compound?
Answer: 111%

Question: And the viability, T/C [14]?
Answer: 95.3%

Question: And the viability, T/C (second compound 0.316 µM, first compound 0.000316 µM)?
Answer: 110%

Question: And the viability, T/C (second compound 0.316 µM, first compound 0.001 µM)?
Answer: 113%

Question: And the viability, T/C [15]?
Answer: 110%

Question: What about the viability, T/C [16] of the same compound?
Answer: 102%

Question: What about the viability, T/C [17] of the same compound?
Answer: 108%

Question: What about the viability, T/C [18] of the same compound?
Answer: 106%

Question: What about the viability, T/C (second compound 1 µM, first compound 0.000316 µM) of the same compound?
Answer: 109%

Question: And the viability, T/C (second compound 1 µM, first compound 0.001 µM)?
Answer: 108%

Question: And the viability, T/C [19]?
Answer: 101%

Question: What about the viability, T/C [20] of the same compound?
Answer: 100%

Question: What about the viability, T/C [21] of the same compound?
Answer: 100%

Question: What about the viability, T/C [22] of the same compound?
Answer: 104%

Question: And the viability, T/C (second compound 3.16 µM, first compound 0.000316 µM)?
Answer: 104%

Question: What about the viability, T/C (second compound 3.16 µM, first compound 0.001 µM) of the same compound?
Answer: 101%

Question: And the viability, T/C [23]?
Answer: 99.4%

Question: And the viability, T/C [24]?
Answer: 97.6%

Question: What about the viability, T/C [25] of the same compound?
Answer: 112%

Question: What about the viability, T/C [26] of the same compound?
Answer: 93.3%

Question: And the viability, T/C (second compound 10 µM, first compound 0.000316 µM)?
Answer: 103%

Question: And the viability, T/C (second compound 10 µM, first compound 0.001 µM)?
Answer: 94.6%

Question: What about the viability, T/C [27] of the same compound?
Answer: 87.4%

Question: What about the viability, T/C [28] of the same compound?
Answer: 98.8%

Question: What about the viability, T/C [29] of the same compound?
Answer: 100%

Question: And the viability, T/C [30]?
Answer: 88.1%

Question: What does the source list for CCN1CCN(Cc2ccc(Nc3ncc(F)c(-c4cc(F)c5nc(C)n(C(C)C)c5c4)n3)nc2)CC1 + Cc1nc(NC(=O)N2CCCC2C(N)=O)sc1-c1ccnc(C(C)(C)C(F)(F)F)c1?
Answer: IC50 [1]: > 1000 nM; IC50 [2]: > 1000 nM; IC50 [3]: > 1000 nM; IC50 [4]: > 1000 nM; IC50 [5]: > 1000 nM; IC50 [6]: > 1000 nM; viability, T/C [7]: 91.7%; viability, T/C [8]: 99.6%; viability, T/C [9]: 100%; viability, T/C [10]: 103%; viability, T/C [31]: 94.3%; viability, T/C [32]: 86.2%; viability, T/C [11]: 98%; viability, T/C [12]: 97.1%; viability, T/C [13]: 102%; viability, T/C [14]: 96.5%; viability, T/C [33]: 84.6%; viability, T/C [34]: 84.5%; viability, T/C [15]: 91.2%; viability, T/C [16]: 81.2%; viability, T/C [17]: 96.1%; viability, T/C [18]: 91.8%; viability, T/C [35]: 81%; viability, T/C [36]: 75.1%; viability, T/C [19]: 69.4%; viability, T/C [20]: 83.1%; viability, T/C [21]: 79.7%; viability, T/C [22]: 77.5%; viability, T/C [37]: 71.5%; viability, T/C [38]: 62.4%; viability, T/C [23]: 71.4%; viability, T/C [24]: 80.7%; viability, T/C [25]: 66.8%; viability, T/C [26]: 61.9%; viability, T/C [39]: 55.8%; viability, T/C [40]: 59.4%; viability, T/C [27]: 58.6%; viability, T/C [28]: 57%; viability, T/C [29]: 50.1%; viability, T/C [30]: 43.3%; viability, T/C [41]: 50.4%; viability, T/C [42]: 57.2%

Question: What does the source list for Cn1cnc2c(F)c(Nc3ccc(Br)cc3Cl)c(C(=O)NOCCO)cc21?
Answer: viability, T/C (compound 0.00949 µM): 89.7% [middle of 4 runs]; viability, T/C (compound 0.03 µM): 67.5% [middle of 4 runs]; viability, T/C (compound 0.0949 µM): 53.3% [middle of 4 runs]; viability, T/C (compound 0.3 µM): 35.9% [middle of 4 runs]; viability, T/C (compound 0.949 µM): 22.4% [middle of 4 runs]; viability, T/C (compound 3 µM): 12.2% (2×) and 12.7% and 13.3%; IC50 (curve of compound): 118 nM [middle of 4 runs]

Question: What does the source list for C#Cc1c(F)ccc2cc(O)cc(-c3ncc4c(N5CC6CCC(C5)N6)nc(OCC56CCCN5CC(F)C6)nc4c3F)c12 (stereo not given) + Cc1nc(NC(=O)N2CCCC2C(N)=O)sc1-c1ccnc(C(C)(C)C(F)(F)F)c1?
Answer: IC50 [1]: 403 nM; IC50 [2]: 467 nM; IC50 [3]: 183 nM; IC50 [4]: 127 nM; IC50 [5]: 104 nM; IC50 [6]: < 31.6 nM; viability, T/C [9]: 80.2%; viability, T/C [10]: 71.2%; viability, T/C [31]: 50.4%; viability, T/C [32]: 40%; viability, T/C [43]: 29.8%; viability, T/C [44]: 23.8%; viability, T/C [13]: 84.3%; viability, T/C [14]: 71.8%; viability, T/C [33]: 54.1%; viability, T/C [34]: 41.4%; viability, T/C [45]: 25.6%; viability, T/C [46]: 19.4%; viability, T/C [17]: 72.6%; viability, T/C [18]: 59.2%; viability, T/C [35]: 41.4%; viability, T/C [36]: 30.9%; viability, T/C [47]: 26.3%; viability, T/C [48]: 15.3%; viability, T/C [21]: 67.3%; viability, T/C [22]: 54.3%; viability, T/C [37]: 37.2%; viability, T/C [38]: 28.3%; viability, T/C [49]: 21%; viability, T/C [50]: 13.7%; viability, T/C [25]: 67%; viability, T/C [26]: 51.9%; viability, T/C [39]: 29.4%; viability, T/C [40]: 21.2%; viability, T/C [51]: 15.8%; viability, T/C [52]: 11.5%; viability, T/C [29]: 49.1%; viability, T/C [30]: 38.7%; viability, T/C [41]: 25.2%; viability, T/C [42]: 18.8%; viability, T/C [53]: 16.9%; viability, T/C [54]: 9.04%

Question: Which results are given for CC1(C)CCC(Nc2ncc(C(F)(F)F)c(-c3c[nH]c4c(P(C)(C)=O)c(C#N)ccc34)n2)CN1 (stereo not given) + Cc1nc(NC(=O)N2CCCC2C(N)=O)sc1-c1ccnc(C(C)(C)C(F)(F)F)c1?
Answer: IC50 [1]: > 10000 nM; IC50 [2]: > 10000 nM; IC50 [3]: > 10000 nM; IC50 [4]: > 10000 nM; IC50 [5]: 9360 nM; IC50 [6]: 3310 nM; viability, T/C [9]: 101%; viability, T/C [10]: 93.7%; viability, T/C [31]: 83.2%; viability, T/C [32]: 74.1%; viability, T/C [43]: 70.9%; viability, T/C [44]: 58.2%; viability, T/C [13]: 94.5%; viability, T/C [14]: 70.2%; viability, T/C [33]: 70.7%; viability, T/C [34]: 70.5%; viability, T/C [45]: 77.9%; viability, T/C [46]: 58%; viability, T/C [17]: 79.6%; viability, T/C [18]: 79%; viability, T/C [35]: 80.4%; viability, T/C [36]: 67.6%; viability, T/C [47]: 74.5%; viability, T/C [48]: 54.6%; viability, T/C [21]: 82%; viability, T/C [22]: 77.6%; viability, T/C [37]: 70.7%; viability, T/C [38]: 69.6%; viability, T/C [49]: 62.3%; viability, T/C [50]: 52.2%; viability, T/C [25]: 75%; viability, T/C [26]: 65.5%; viability, T/C [39]: 60.6%; viability, T/C [40]: 63.2%; viability, T/C [51]: 61.5%; viability, T/C [52]: 46%; viability, T/C [29]: 54%; viability, T/C [30]: 50.6%; viability, T/C [41]: 49.8%; viability, T/C [42]: 47%; viability, T/C [53]: 52.7%; viability, T/C [54]: 30.4%

Source: PubChem BioAssay AID1963970 (Molecular Pharmacology Branch, DTP, NCI, 2024)
